This note sets out measurements from ChEMBL document CHEMBL1201862, “PubChem BioAssay data set” (2004).

Each structure is given as a SMILES string.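 Tested at 5 concentrations; 48 h exposure; 96-well plates; endpoints linearly interpolated, else capped at highest concentration. GI50 is the concentration that inhibits growth by half.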 Activity calls are given as the source filed them. Rule as the data show it: active = GI50 up to about 1.1 µM and inactive = higher. A value given as a limit tells only on which side of the number the result lay.

Among the test systems are OVCAR-4; K562; M14; HOP-92; NCI-H460; HT-29; MCF7; SK-MEL-2; MDA-MB-231; SW-620; Malme-3M; A549; A498; BT-549; EKVX; SK-OV-3; UO-31; SNB-75; SR; HCC 2998.
What all share (assay): NCI tumour cell line growth inhibition, 48 h

On to `O=C1N/C(=N/N=C/c2ccccc2)N/C1=C\c1c[nH]c2ccccc12`, for which the GI50 in the experiment on OVCAR-4 was > 100 µM (inactive); in the experiment on K562 it was 47.1 µM (inactive); in the experiment with M14, 71.6 µM (inactive); in the experiment with HOP-92, > 100 µM (inactive); in the experiment with NCI-H460, 61 µM (inactive); in the experiment on HT-29, > 100 µM (inactive). The GI50 in the experiment with MCF7 was 80.7 µM (inactive); in the experiment on SK-MEL-2, > 100 µM (inactive); with MDA-MB-231, 42.9 µM (inactive); in the experiment on SW-620, 64.4 µM (inactive); in the experiment with Malme-3M it was > 100 µM (inactive); with A549 it was 28 µM (inactive). Also, the GI50 was > 100 µM (inactive) in the experiment with A498; > 100 µM (inactive) in the experiment with BT-549; 84.5 µM (inactive) with EKVX; > 100 µM (inactive) in the experiment on SK-OV-3; 71.6 µM (inactive) with UO-31; > 100 µM (inactive) in the experiment with SNB-75.

Take `COc1cc2c(cc1O)C(=O)O[C@@H]1CC=C3CCN(C)[C@H]3[C@H]21`: the GI50 in the experiment with OVCAR-4, in the experiment on K562, in the experiment on M14, in the experiment on SR, in the experiment on HT-29 and in the experiment on MCF7 was > 25 µM (inactive) each time. Moreover, the GI50 with SK-MEL-2, with MDA-MB-231, with SW-620, with Malme-3M, in the experiment with A549 and with HCC 2998 was > 25 µM (inactive) each time. The GI50 in the experiment with A498, with BT-549, in the experiment on EKVX, in the experiment with SK-OV-3, in the experiment with UO-31 and with SNB-75 was > 25 µM (inactive) throughout.

For the compound `CC(=O)NC1C(Sc2ncn(C3OC(CO)C(O)C(O)C3NC(C)=O)n2)OC(CO)C(O)C1O` (stereo not drawn), the GI50 in the experiment on OVCAR-4, in the experiment with M14, with HOP-92, in the experiment with NCI-H460, in the experiment with HT-29 and in the experiment on MCF7 was > 100 µM (inactive) each time. Also, the GI50 in the experiment on SK-MEL-2, with MDA-MB-231, in the experiment with SW-620, in the experiment on Malme-3M, in the experiment on A549 and in the experiment on HCC 2998 was > 100 µM (inactive) each time. Moreover, the GI50 in the experiment on A498, in the experiment with BT-549, with EKVX and with SK-OV-3 was > 100 µM (inactive) throughout.

Consider `[O-][S+](Nc1ccccc1)c1ccc(Cl)cc1` (stereo not drawn), for which the GI50 in the experiment on OVCAR-4 was > 100 µM (inactive); in the experiment with K562 it was > 100 µM (inactive); with M14, > 100 µM (inactive); in the experiment on SR, 16.4 µM (inactive); with NCI-H460, 56 µM (inactive); in the experiment on HT-29 it was > 100 µM (inactive). The GI50 was > 100 µM (inactive) in the experiment with MCF7; > 100 µM (inactive) in the experiment on SK-MEL-2; > 100 µM (inactive) with MDA-MB-231; > 100 µM (inactive) in the experiment on SW-620; > 100 µM (inactive) with Malme-3M; 48.4 µM (inactive) with A549. The GI50 with HCC 2998 is 69.7 µM (inactive); with BT-549, 32.6 µM (inactive); with EKVX, > 100 µM (inactive); in the experiment on UO-31, 44.8 µM (inactive).

For the compound `Nc1c(-c2ccccc2)c2ccc([N+](=O)[O-])cc2c(=O)n1-c1cccc(C(=O)O)c1`, the GI50 in the experiment on OVCAR-4, in the experiment with K562, with M14, in the experiment on SR, with NCI-H460 and in the experiment with HT-29 was > 100 µM (inactive) in each case. The GI50 in the experiment with MCF7, with SK-MEL-2, in the experiment with MDA-MB-231, in the experiment with SW-620, in the experiment with A549 and in the experiment with HCC 2998 was > 100 µM (inactive) throughout. The GI50 in the experiment on A498 was > 100 µM (inactive); in the experiment on BT-549, 51.9 µM (inactive); in the experiment with EKVX it was > 100 µM (inactive); with SK-OV-3 it was > 100 µM (inactive); with UO-31 it was > 100 µM (inactive); in the experiment with SNB-75 it was > 100 µM (inactive).

Regarding `O=[N+]([O-])/C(C(Cl)=C(Cl)Cl)=C1\Nc2ccc([N+](=O)[O-])cc2N1`, the GI50 in the experiment on OVCAR-4 is > 100 µM (inactive); in the experiment with K562, > 100 µM (inactive); in the experiment with M14 it was > 100 µM (inactive); in the experiment on HOP-92 it was 14.3 µM (inactive); in the experiment with NCI-H460 it was > 100 µM (inactive); in the experiment with MCF7 it was > 100 µM (inactive). The GI50 in the experiment on SK-MEL-2 is > 100 µM (inactive); in the experiment on MDA-MB-231, 45.2 µM (inactive); with Malme-3M it was 63.5 µM (inactive); in the experiment on A549, > 100 µM (inactive); in the experiment on A498 it was > 100 µM (inactive); in the experiment with BT-549 it was 62.2 µM (inactive). The GI50 with EKVX is > 100 µM (inactive); in the experiment with SK-OV-3 it was > 100 µM (inactive); with UO-31, 14.1 µM (inactive); in the experiment with SNB-75 it was > 100 µM (inactive).

In the case of `CCC(=O)C(CCN1CCC(N2C(=O)C(CCC#N)c3ccccc32)CC1)(c1ccccc1)c1ccccc1` (stereo not drawn), the GI50 in the experiment on K562 is 3.8 µM (inactive); in the experiment on M14 it was 10.1 µM (inactive); with SR, 0.0486 µM (active); in the experiment on NCI-H460, 11.3 µM (inactive); in the experiment with HT-29, 3.4 µM (inactive); in the experiment on MCF7, 11.5 µM (inactive). The GI50 with SK-MEL-2 was 13.9 µM (inactive); with MDA-MB-231 it was 7.36 µM (inactive); in the experiment with SW-620 it was 11.8 µM (inactive); in the experiment with Malme-3M, 12.1 µM (inactive); in the experiment on A549 it was 14 µM (inactive); in the experiment with HCC 2998, 12.4 µM (inactive). For the same compound, the GI50 in the experiment with A498 is 23.2 µM (inactive); with BT-549, 13.3 µM (inactive); in the experiment with SK-OV-3, 15.5 µM (inactive); in the experiment on UO-31, 9.53 µM (inactive); in the experiment on SNB-75, 12.9 µM (inactive).

Take `Nn1c(CNc2ccc(-c3nnc(Nc4ccc(Cl)cc4)n3N)cc2)nnc1Nc1ccc(Cl)cc1`: the GI50 in the experiment with OVCAR-4 was > 100 µM (inactive); in the experiment on K562 it was 67.9 µM (inactive); in the experiment on M14 it was 51.6 µM (inactive); in the experiment on HOP-92, > 100 µM (inactive); with NCI-H460, > 100 µM (inactive); with HT-29, 44.2 µM (inactive). Besides, the GI50 is 61.1 µM (inactive) with MCF7; > 100 µM (inactive) with SK-MEL-2; > 100 µM (inactive) in the experiment with MDA-MB-231; > 100 µM (inactive) in the experiment on SW-620; > 100 µM (inactive) with Malme-3M; > 100 µM (inactive) with A549. Moreover, the GI50 in the experiment on HCC 2998 was > 100 µM (inactive); in the experiment with A498 it was > 100 µM (inactive); with BT-549 it was > 100 µM (inactive); with EKVX, > 100 µM (inactive); in the experiment with SK-OV-3, > 100 µM (inactive); in the experiment on UO-31, 61.4 µM (inactive). Besides, in the experiment on SNB-75, the GI50 is > 100 µM (inactive).

`COC(=O)C12CCCN1CCC2`: the GI50 in the experiment with OVCAR-4, in the experiment on K562, in the experiment with M14, in the experiment with SR, in the experiment on NCI-H460 and in the experiment with HT-29 was > 100 µM (inactive) in each case. Besides, the GI50 with MCF7, in the experiment with SK-MEL-2, with MDA-MB-231, in the experiment on SW-620, in the experiment with Malme-3M and in the experiment with A549 was > 100 µM (inactive) each time. Further, the GI50 with HCC 2998, with BT-549, with EKVX, in the experiment on SK-OV-3, in the experiment on UO-31 and in the experiment on SNB-75 was > 100 µM (inactive) each time.

On to `C[P+](c1ccccc1)(c1ccc(Cl)cc1)c1ccc(Cl)cc1`, for which the GI50 in the experiment on OVCAR-4 is 13.2 µM (inactive); in the experiment with K562, 11.2 µM (inactive); with M14 it was 11.6 µM (inactive); in the experiment with HOP-92 it was 10.3 µM (inactive); in the experiment on NCI-H460 it was 24.2 µM (inactive); in the experiment on HT-29 it was 4.44 µM (inactive). Moreover, the GI50 with MCF7 is 26.9 µM (inactive); in the experiment on SK-MEL-2, 19.9 µM (inactive); in the experiment with MDA-MB-231, 13.2 µM (inactive); in the experiment on SW-620 it was 18.5 µM (inactive); with Malme-3M, 4.19 µM (inactive); in the experiment on A549, 32.4 µM (inactive). The GI50 was 8.61 µM (inactive) with HCC 2998; 27.5 µM (inactive) in the experiment with A498; 21.3 µM (inactive) in the experiment with BT-549; 21.3 µM (inactive) with EKVX; 37.2 µM (inactive) in the experiment on SK-OV-3; 38 µM (inactive) in the experiment on UO-31. Further, the GI50 in the experiment on SNB-75 was 14.4 µM (inactive).

In the case of `CCOS(C)(=O)=O` [METHANESULFONIC ACID ETHYL ESTER], the GI50 is > 100 µM (inactive) in the experiment with OVCAR-4; > 100 µM (inactive) in the experiment with K562; > 100 µM (inactive) in the experiment on M14; 17 µM (inactive) in the experiment on HOP-92; > 100 µM (inactive) in the experiment on NCI-H460; > 100 µM (inactive) in the experiment on HT-29. In addition, the GI50 with MCF7, in the experiment on SK-MEL-2, in the experiment with MDA-MB-231, in the experiment with SW-620, in the experiment with Malme-3M and in the experiment with A549 was > 100 µM (inactive) throughout. The GI50 in the experiment with HCC 2998, in the experiment with A498, in the experiment on BT-549, with EKVX, in the experiment on SK-OV-3 and in the experiment on UO-31 was > 100 µM (inactive) in each case.
